Reference: patent US4446141A, “Hypotensive piperidine derivatives” (priority 1978, dated 1984)
Counter-ions that a name gives are not always drawn. Like-named read-outs stand apart in the source and are kept apart here.

Experiments:
[1] = tested on: blood pressure; assay: Experiment 6 Dosage-reaction curve, DOCA-NaCl loaded hypertensive rats; type: in vivo, DOCA-sodium chloride loaded hypertensive rats; settings: average of five rats
Source text: (§1) Experiment 6 Dosage-reaction curve: compared with betanidin
(§2) Five spontaneously hypertensive rats (16 weeks old) and five DOCA-sodium chloride loaded hypertensive rats (having been bred for 5 weeks after removing one kidney) were respectively used as one group.
(§3) As the test compounds, Compound 1 and betanidin sulfate, which is a known hypotensive agent, were used.
(§4) The test compounds were respectively dissolved in 0.3% (w/v) CMC aqueous solution and each of the resulting solutions was orally administered to the rats in a dose of 1 ml/100 g. The amounts of the solutions administered were equal per unit weight of rats and the concentrations thereof were varied according to the doses of the compounds indicated in Table 8. The maximum reduction in blood pressure after the administration was measured according to the method of tail artery plethysmography.

[2] = tested on: blood pressure; assay: Experiment 6 Dosage-reaction curve, spontaneously hypertensive rats; type: in vivo; settings: SHR, 50 mg/kg oral; average of five rats
Source text: as §1, §2, §3, §4

[3] = tested on: male dd-strain mice; settings: mouse, in vivo
[4] = tested on: blood pressure; assay: Experiment 3 Hypotensive action (maximum reduction in blood pressure); type: in vivo, Wistar-strain rats; settings: read-out: BP: Reduction of blood pressure
[5] = maximum reduction, oral, 5 mg per 100 g rat weight

For `CN=C(NC)NCc1ccccc1` [Betanidin sulfate, betanidin sulfate], the “maximum reduction in blood pressure” value ([1]; 1.0 mg/kg oral) was -25 mmHg, the “maximum reduction in blood pressure” value ([1]; 10 mg/kg oral) was -34 mmHg and the “maximum reduction in blood pressure” value ([1]; 50 mg/kg oral) was -58 mmHg. The “maximum reduction in blood pressure” value [2] was -40 mmHg.
In the case of `CCOc1nc2ccccc2n1C1CCN(CC(O)c2ccc3c(c2)OCO3)CC1` (stereo not shown) [Compound 11, 1-[2-hydroxy-2-(3,4-methylenedioxyphenyl)-1-ethyl]-4-(2-ethoxy-1-benzimidazolinyl)-piperidine], the “Number of Death I.P.” value [3] is reported as 0, the “Number of Death P.O.” value [3] is reported as 0 and the inhibition in vivo at 50 mg/kg [4, 5] is reported as 6 to 10%.
In the case of `O=c1[nH]c2ccccc2n1C1=CCN(CCc2ccc3c(c2)OCO3)CC1` [Compound 12, 1-[2-(3,4-methylenedioxyphenyl)-1-ethyl]-4-(2-keto-1-benzimidazolinyl)-1,2,5,6-tetrahydropyridine], the “Number of Death I.P.” value [3] is reported as 0, the “Number of Death P.O.” value [3] is reported as 0 and the inhibition in vivo at 50 mg/kg [4, 5] is reported as 6 to 10%.
In the case of `COc1ccc(C(OC(C)=O)C(C)N2CCC(n3c(=O)n(C(C)=O)c4ccccc43)CC2)cc1OC` (stereo not shown) [Compound 32, 1-[3-acetoxy-3-(3,4-dimethoxyphenyl)-2-propyl]-4-(3-acetyl-2-keto-1-benzimidazolinyl)-piperidine], the “Number of Death I.P.” value [3] is reported as 0, the “Number of Death P.O.” value [3] is reported as 0 and the inhibition in vivo at 50 mg/kg [4, 5] is reported as greater than 11%.
In the case of `COc1ccc(C(OC(C)=O)C(C)N2CCC(n3c(=O)[nH]c4ccccc43)CC2)cc1OC` (stereo not shown) [Compound 34, 1-[3-acetoxy-3-(3,4-dimethoxyphenyl)-2-propyl]-4-(2-keto-1-benzimidazolinyl)-piperidine], the “Number of Death I.P.” value [3] is reported as 0, the “Number of Death P.O.” value [3] is reported as 0 and the inhibition in vivo at 50 mg/kg ([4]; Rattus norvegicus, po) is reported as greater than 11%.
`CCOC(=O)n1c(=O)n(C2CCN(CC(=O)c3ccc(OC)c(OC)c3)CC2)c2ccccc21` [Compound 35, 1-[2-oxo-2-(3,4-dimethoxyphenyl)-1-ethyl]-4-(2-keto-3-ethoxycarbonyl-1-benzimidazolinyl)-piperidine] was tested, and the “Number of Death I.P.” value [3] was 0, the “Number of Death P.O.” value [3] was 0 and the inhibition in vivo at 50 mg/kg [4, 5] was greater than 11%.
